{"source": "patent US20120328526A1", "about": "“Modulation of Nad+ Activity in Neuropathophysiological Conditions and Uses Thereof” (University of Maryland, Baltimore, priority 2011, published 2012)", "key": {"tissue NAD(H) levels": {"tested_on": "tissue NAD(H) levels", "assay": "Tissue NAD(H) levels in post-ischemic brain regions (enzymatic cycling assay)", "format": "in vivo, mouse", "details": "10 min forebrain ischemia, NMN intraperitoneally at 1 h of reperfusion, measured at 24 h of recovery", "protocol": "FIGS. 3A-3B show the effect of forebrain ischemia and nicotinamide mononucleotide administration on tissue NAD(H) levels. Mice were subjected to 10 min transient forebrain ischemia and allowed to recover for 24 h. After decapitation their brains were removed, the designated regions dissected and frozen in liquid nitrogen. One group of animals received nicotinamide mononucleotide at 1 hour of recovery. The NAD content was determined following perchloric acid extraction and utilized a coupled fluorometric cycling enzymatic assay (FIG. 3A). There is significant loss of NAD^+ in striatum, CA1, and DG regions. *p<0.05. […] Black: sham; white: ischemia; gray: NMN treatment. FIG. 3B: Effect of ischemia on CD38 activity. […] The CD38 enzyme activity was determined using 1-etheno-NAD that, when hydrolyzed by CD38, generates a fluorescent product. The rate of fluorescence increase corresponds to the CD38 enzyme activity. […]\nThe tissue NAD(H) levels were determined utilizing an enzymatic cycling assay. […] The parietal cortex, striatum, the CA1 sector and CA3-DG regions of the hippocampus were dissected and the tissue NAD(H) levels were determined following perchloric acid extraction. […] Nicotinamide mononucleotide was administrated intraperitoneally at 1 h of reperfusion and the tissue NAD(H) content was determined at 24 h of recovery."}, "CD38": {"target": "T1, CD38 (Mus musculus, UniProt P56528)", "T1 construct": "Addition of isolated brain mitochondria into medium containing 1-etheno-NAD (eNAD) results in generation of fluorescent product; from tissue; host or cells: isolated brain mitochondria", "T1 sequence (P56528 1-304)": "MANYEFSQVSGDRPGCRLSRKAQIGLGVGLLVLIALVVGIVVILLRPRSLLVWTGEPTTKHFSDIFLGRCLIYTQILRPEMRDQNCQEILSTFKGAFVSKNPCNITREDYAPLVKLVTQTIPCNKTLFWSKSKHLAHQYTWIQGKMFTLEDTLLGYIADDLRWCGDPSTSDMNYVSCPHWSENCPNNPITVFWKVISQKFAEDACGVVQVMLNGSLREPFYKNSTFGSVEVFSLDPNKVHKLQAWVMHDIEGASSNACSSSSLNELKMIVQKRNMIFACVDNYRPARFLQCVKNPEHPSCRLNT", "assay": "1-etheno-NAD hydrolysis by isolated brain mitochondria", "format": "biochemical", "details": "NMN 1 mM", "protocol": "Addition of isolated brain mitochondria into medium containing 1-etheno-NAD (eNAD) results in generation of fluorescent product. This NAD catabolism is inhibited by nicotinamide mononucleotide (1 mM). […] In brain tissue of sham-operated animals the CD38 expression is very low. […] This increase is observed particularly in non-neuronal cells that resemble post-ischemic microglia."}, "[1]": {"tested_on": "C57Bl/6 mice subjected to moderate-level traumatic brain injury", "assay": "Beam walk test after controlled cortical impact traumatic brain injury", "format": "in vivo, mouse", "details": "NMN 500 mg/kg I.P. at 1 hour post-injury, 7 days post-injury, p<0.001", "protocol": "FIGS. 9A-9B show traumatic brain injury-induced deficits in sensorimotor function and cognition are ameliorated by nicotinamide mononucleotide treatment. FIG. 9A: Fine motor coordination deficits were quantified using a beam walk test in C57Bl/6 mice subjected to moderate-level traumatic brain injury and treated with nicotinamide mononucleotide (500 mg/kg, I.P.) or equal volume of vehicle at 1 hour post-injury. Hindlimb foot placement was recorded up to 7 days post-injury and the number of foot faults recorded from 50 steps. Naïve C57Bl/6 mice served as a control group. […] Analysis was by repeated measures one-way ANOVA, followed by post-hoc adjustments using Student-Newman-Keuls test. Mean ±S.E.M.; n=5/group. FIG. 9B: Cognitive performance was analyzed by measuring the number of anti-clockwise and clockwise rotations of traumatic brain injury mice in an open field test performed at 7 days post-injury.\nIn a clinically relevant model of traumatic brain injury, controlled cortical impact (CCI) (Fox et al. 1998), was induced in C57Bl/6 mice and these animals were followed for up to 1 year post-injury to assess post-traumatic tissue loss and neurodegeneration. […] One group was evaluated for changes between 24 h and 3 months post-injury; a second group was used to compare changes in TBI-induced lesion volume between 6 and 12 months. […]"}}, "note": "Entries after “also recorded” stand apart in the source; their conditions may differ."}
{"smiles": "NC(=O)c1ccc[n+]([C@@H]2O[C@H](COP(=O)([O-])O)[C@@H](O)[C@H]2O)c1", "note": "[nicotinamide mononucleotide]", "values": [{"measurement": "post-ischemic brain tissue NAD(H) levels", "setting": "tissue NAD(H) levels", "result": "reversed; also recorded: complete recovery of brain tissue NAD(H) levels"}, {"measurement": "post-ischemic brain tissue NAD(H) levels", "setting": "tissue NAD(H) levels; listed as NMN", "result": "prevented the post-ischemic NAD catabolism"}, {"measurement": "NAD catabolism (eNAD fluorescent product) by isolated brain mitochondria", "setting": "CD38", "result": "inhibited"}, {"measurement": "fine motor coordination (beam walk foot faults) vs vehicle-treated TBI mice", "setting": "[1]", "result": "significant improvement in motor performance"}, {"measurement": "fine motor coordination (beam walk foot faults) vs vehicle-treated TBI mice", "setting": "[1]; listed as NMN", "result": "significantly reduced deficits in fine motor coordination"}]}
